Measured values from patent US12134599B2, “Solid forms” (River 3 Renal Corp., priority 2021, dated 2024).

Columns and labels:
[1] = Dynamic vapor sorption (DVS) analysis; assay type: physicochemical
physchem = conditions: 25 °C, water, thermodynamic from solid
Method: About 5 mg of crystalline Form E was weighed in 2 mL glass vials. 20 μL aliquots of each solvent were added to dissolve the compound at 25° C. Vortex and sonication were applied to assist dissolution. The maximum volume of each solvent added was 1 mL.

[2] = between about 0 to about 90% relative humidity (RH) at 25° C.

Compound	DVS total mass change [1, 2]	further results
O=C(N[C@@H]1CCCC[C@H]1O)c1cnc(OCC(F)(F)F)c(-c2ccc(Cl)c(Cl)c2)c1 [Form A, 5-(3,4-dichlorophenyl)-N-((1R,2R)-2-hydroxycyclohexyl)-6-(2,2,2-trifluoroethoxy)nicotinamide]	about 1.8 wt. %	
O=C(N[C@@H]1CCCC[C@H]1O)c1cnc(OCC(F)(F)F)c(-c2ccc(Cl)c(Cl)c2)c1 [Form H, 5-(3,4-dichlorophenyl)-N-((1R,2R)-2-hydroxycyclohexyl)-6-(2,2,2-trifluoroethoxy)nicotinamide]		DVS total mass change ([1]; between about 0 to about 70% relative humidity (RH) at 25° C.): about 2.5 wt. %; DVS total mass change ([1]; between about 70 to about 90% relative humidity (RH) at 25° C.): about 25 wt. %
O=C(N[C@@H]1CCCC[C@H]1O)c1cnc(OCC(F)(F)F)c(-c2ccc(Cl)c(Cl)c2)c1 [Form D, 5-(3,4-dichlorophenyl)-N-((1R,2R)-2-hydroxycyclohexyl)-6-(2,2,2-trifluoroethoxy)nicotinamide]	about 20 wt. %	
O=C(N[C@@H]1CCCC[C@H]1O)c1cnc(OCC(F)(F)F)c(-c2ccc(Cl)c(Cl)c2)c1 [Form 2, 5-(3,4-dichlorophenyl)-N-((1R,2R)-2-hydroxycyclohexyl)-6-(2,2,2-trifluoroethoxy)nicotinamide]	about 2.1 wt. %	
O=C(N[C@@H]1CCCC[C@H]1O)c1cnc(OCC(F)(F)F)c(-c2ccc(Cl)c(Cl)c2)c1 [Form E, 5-(3,4-dichlorophenyl)-N-((1R,2R)-2-hydroxycyclohexyl)-6-(2,2,2-trifluoroethoxy)nicotinamide]	about 0.3 wt. %	solubility (physchem): < 5000 µg/mL
O=C(N[C@@H]1CCCC[C@H]1O)c1cnc(OCC(F)(F)F)c(-c2ccc(Cl)c(Cl)c2)c1 [Form B, 5-(3,4-dichlorophenyl)-N-((1R,2R)-2-hydroxycyclohexyl)-6-(2,2,2-trifluoroethoxy)nicotinamide]	about 0.3 wt. %	
O=C(N[C@@H]1CCCC[C@H]1O)c1cnc(OCC(F)(F)F)c(-c2ccc(Cl)c(Cl)c2)c1 [Form I, 5-(3,4-dichlorophenyl)-N-((1R,2R)-2-hydroxycyclohexyl)-6-(2,2,2-trifluoroethoxy)nicotinamide]	about 10 wt. %	
